Measured values: patent US6110888A, “Substituted phenols as fragrance, flavor and antimicrobial compounds” (Takasago International Corporation, priority 1999, dated 2000)
Converted amounts (≈) assume the structure as drawn. Read-outs that look alike come from different tables or passages of the source.

Assays:
Pseudomonas aeruginosa = test: MIC, P. aeruginosa (Table 2); type: cell-based; details: read-out: Anti-Microbial Activity MIC, P. aerug.
Description: (§1) Anti-Microbial Activity of Examples 1-6 (MIC in μg/mL)
(§2) Antimicrobial activity was evaluated to determine minimal inhibitory concentration ("MIC") and Minimal Bactericidal Concentration ("MBC"). The specific biological testing protocol is published R. Kang et al., "J. Agric. Food Chem.," vol. 40 pp. 2328-2330 (1994), the entirety of which is herein incorporated by reference.

[1] = system: Staphylococcus epidermidis; test: MIC, S. epidermidis (Table 1); type: cell-based; details: read-out: Anti-Microbial Activity MIC, S. e.
Description: (§3) The anti-microbial activity of Examples 1-6 were evaluated.
as §1, §2

Propionibacterium acnes = test: MIC, P. acnes (Table 1); type: cell-based; details: Cutibacterium acnes, read-out: Anti-Microbial Activity MIC, P. acnes
Description: as §3, §1, §2

Escherichia coli = test: MIC, E. coli (Table 2); type: cell-based; details: read-out: Anti-Microbial Activity MIC, E. c.
Description: as §1, §2

Staphylococcus aureus = test: MIC, S. aureus (Table 1); type: cell-based; details: read-out: Anti-Microbial Activity MIC, S. a.
Description: as §3, §1, §2

Steptococcus mutans = test: MIC, S. mutans (Table 1); type: cell-based; details: Streptococcus mutans, read-out: Anti-Microbial Activity MIC, S. m.
Description: as §3, §1, §2

Aspergillus niger = test: MIC, A. niger (Table 2); type: cell-based; details: read-out: Anti-Microbial Activity MIC, A. niger
Description: as §1, §2

[2] = system: Corynebacterium minutissimum; test: MIC, C. minutissimum (Table 1); type: cell-based; details: read-out: Anti-Microbial Activity MIC, C. m.
Description: as §3, §1, §2

Actinomyces neaslundii = test: MIC, A. neaslundii (Table 1); type: cell-based; details: read-out: Anti-Microbial Activity MIC, A. neasl
Description: as §3, §1, §2

Corynebacterium xerosis = test: MIC, C. xerosis (Table 1); type: cell-based; details: read-out: Anti-Microbial Activity MIC, C. x.
Description: as §3, §1, §2

Candida albicans = test: MIC, C. albicans (Table 2); type: cell-based; details: read-out: Anti-Microbial Activity MIC, C. a.
Description: as §1, §2

[3] = system: bacteria involved in upper respiratory tract infections; details: N. Didry et al. 1993; cited from earlier work
oral bacteria = details: N. Didry et al. 1994; cited from earlier work
[4] = P. aeruginosa strain 15442, gram -
[5] = S. epidermidis strain 1228, gram+
[6] = C. minutissimum strain 23348, gram+
[7] = A. neaslundii strain 19039, gram+
[8] = C. albicans strain 10231, fungi

MIC (Pseudomonas aeruginosa; [4]) [µg/mL]	MIC [1, 5] [µg/mL]	MIC (Propionibacterium acnes; P. acnes strain 6919, gram+) [µg/mL]	MIC (Escherichia coli; E. coli strain 11229, gram -) [µg/mL]	MIC (Staphylococcus aureus; S. aureus strain 6535, gram+) [µg/mL]	MIC (Steptococcus mutans; S. mutans strain 25175, gram+) [µg/mL]	MIC (Aspergillus niger; A. niger strain 16404, fungi) [µg/mL]	MIC [2, 6] [µg/mL]	MIC (Actinomyces neaslundii; [7]) [µg/mL]	MIC (Corynebacterium xerosis; C. xerosis strain 373, gram+) [µg/mL]	MIC (Candida albicans; [8]) [µg/mL]	SMILES	other results
> 1000	62.5 (≈ 325 µM)	31.2 (≈ 163 µM)	> 1000	62.5 (≈ 325 µM)	31.2 (≈ 163 µM)	125 (≈ 650 µM)	62.5 (≈ 325 µM)	62.5 (≈ 325 µM)	62.5 (≈ 325 µM)	125 (≈ 650 µM)	CCCc1c(C)ccc(C(C)C)c1O [Example 3a, Ortho Propyl Thymol]	
											Cc1ccc(C(C)C)cc1O [carvacrol, reference compound]	MIC (Pseudomonas aeruginosa): > 1000 µg/mL; MIC [1]: 125 µg/mL (≈ 832 µM); MIC (Propionibacterium acnes): 125 µg/mL (≈ 832 µM); MIC (Escherichia coli): 500 µg/mL (≈ 3330 µM); antimicrobial activity in several in vitro methods [3]: broad spectrum activity; MIC (Staphylococcus aureus): 125 µg/mL (≈ 832 µM); MIC (Steptococcus mutans): 125 µg/mL (≈ 832 µM); MIC (Aspergillus niger): 250 µg/mL (≈ 1660 µM); MIC [2]: 125 µg/mL (≈ 832 µM); MIC (Actinomyces neaslundii): 125 µg/mL (≈ 832 µM); inhibitory activity on several microorganisms (oral bacteria): showed an inhibitory activity on several microorganisms; MIC (Corynebacterium xerosis): 125 µg/mL (≈ 832 µM); MIC (Candida albicans): 250 µg/mL (≈ 1660 µM)
> 1000	62.5 (≈ 328 µM)	62.5 (≈ 328 µM)	> 1000	62.5 (≈ 328 µM)	62.5 (≈ 328 µM)	125 (≈ 657 µM)	62.5 (≈ 328 µM)	62.5 (≈ 328 µM)	62.5 (≈ 328 µM)	125 (≈ 657 µM)	C=CCc1c(C)ccc(C(C)C)c1O [Example 1a, Ortho Allyl Thymol]	
	31.2 (≈ 164 µM)	15.6 (≈ 82 µM)	> 500	31.2 (≈ 164 µM)			31.2 (≈ 164 µM)		31.2 (≈ 164 µM)		C=CCc1cc(C(C)(C)C)ccc1O [Example 5, Ortho Allyl Para tert-Butyl Phenol]	
											C=CCc1ccc(O)c(OC)c1 [eugenol]	inhibitory activity on several microorganisms (oral bacteria): showed an inhibitory activity on several microorganisms
> 1000	31.2 (≈ 163 µM)	31.2 (≈ 163 µM)	> 1000	125 (≈ 650 µM)	31.2 (≈ 163 µM)	125 (≈ 650 µM)	31.2 (≈ 163 µM)	31.2 (≈ 163 µM)	31.2 (≈ 163 µM)	62.5 (≈ 325 µM)	CCCc1c(C(C)C)ccc(C)c1O [Example 4a, Ortho Propyl Carvacrol]	
> 1000	31.2 (≈ 163 µM)	≤ 15.6	> 1000	≤ 15.6	≤ 15.6	62.5 (≈ 325 µM)	≤ 15.6	≤ 15.6	≤ 15.6	62.5 (≈ 325 µM)	CCCc1cc(C)c(O)cc1C(C)C [Example 4b, Para Propyl Carvacrol]	
> 1000	62.5 (≈ 328 µM)	31.2 (≈ 164 µM)	> 1000	62.5 (≈ 328 µM)	62.5 (≈ 328 µM)	125 (≈ 657 µM)	62.5 (≈ 328 µM)	62.5 (≈ 328 µM)	62.5 (≈ 328 µM)	125 (≈ 657 µM)	C=CCc1c(C(C)C)ccc(C)c1O [Example 2a, Ortho Allyl Carvacrol]	
	62.5 (≈ 328 µM)	62.5 (≈ 328 µM)		62.5 (≈ 328 µM)	62.5 (≈ 328 µM)	125 (≈ 657 µM)	62.5 (≈ 328 µM)		62.5 (≈ 328 µM)	125 (≈ 657 µM)	C=CCc1cc(C)c(O)cc1C(C)C [Example 2b, Para Allyl Carvacrol]	
	15.6 (≈ 81.1 µM)	7.8 (≈ 40.6 µM)	> 500	15.6 (≈ 81.1 µM)			15.6 (≈ 81.1 µM)		15.6 (≈ 81.1 µM)		CCCc1cc(C(C)(C)C)ccc1O [Example 6, Ortho Propyl Para tert-Butyl Phenol]	
											O=CC=Cc1ccccc1 [cinnamaldehyde]	antimicrobial activity in several in vitro methods [3]: broad spectrum activity; inhibitory activity on several microorganisms (oral bacteria): showed an inhibitory activity on several microorganisms
> 1000	62.5 (≈ 328 µM)	31.2 (≈ 164 µM)	> 1000	62.5 (≈ 328 µM)	31.2 (≈ 164 µM)	125 (≈ 657 µM)	62.5 (≈ 328 µM)	62.5 (≈ 328 µM)	62.5 (≈ 328 µM)	125 (≈ 657 µM)	C=CCc1cc(C(C)C)c(O)cc1C [Example 1b, Para Allyl Thymol]	
> 1000	31.2 (≈ 163 µM)	31.2 (≈ 163 µM)	> 1000	31.2 (≈ 163 µM)	31.2 (≈ 163 µM)	125 (≈ 650 µM)	31.2 (≈ 163 µM)	31.2 (≈ 163 µM)	31.2 (≈ 163 µM)	62.5 (≈ 325 µM)	CCCc1cc(C(C)C)c(O)cc1C [Example 3b, Para Propyl Thymol]	

SMILES	MIC (Pseudomonas aeruginosa; [4]) [µg/mL]	MIC [1, 5] [µg/mL]	MIC (Propionibacterium acnes; P. acnes strain 6919, gram+) [µg/mL]	MIC (Escherichia coli; E. coli strain 11229, gram -) [µg/mL]	MIC (Staphylococcus aureus; S. aureus strain 6535, gram+) [µg/mL]	MIC (Steptococcus mutans; S. mutans strain 25175, gram+) [µg/mL]	MIC (Aspergillus niger; A. niger strain 16404, fungi) [µg/mL]	MIC [2, 6] [µg/mL]	MIC (Actinomyces neaslundii; [7]) [µg/mL]	MIC (Corynebacterium xerosis; C. xerosis strain 373, gram+) [µg/mL]	MIC (Candida albicans; [8]) [µg/mL]	other results
Cc1ccc(C(C)C)c(O)c1 [Thymol, thymol, reference compound]	> 1000	250 (≈ 1660 µM)	125 (≈ 832 µM)	250 (≈ 1660 µM)	250 (≈ 1660 µM)	250 (≈ 1660 µM)	125 (≈ 832 µM)	125 (≈ 832 µM)	125 (≈ 832 µM)	250 (≈ 1660 µM)	250 (≈ 1660 µM)	antimicrobial activity in several in vitro methods [3]: broad spectrum activity; inhibitory activity on several microorganisms (oral bacteria): showed an inhibitory activity on several microorganisms
